Source: patent US20210300939A1, “Single Molecule Compounds Providing Multi-Target Inhibition of BTK and Other Proteins and Methods of Use Thereof” (SignalRx Pharmaceuticals, Inc., priority 2018, published 2021)

Tests used:
[1] = biological target: T1, BRD4-1 (binding domain 1 of BRD4) (Homo sapiens, UniProt O60885); experiment: BRD4 binding domain 1 inhibition (Reaction Biology Corp.); details: 10-point curve; read-out: Target IC50 BRD4-1
T1 construct: purchased Reaction Biology Corp., Malvern, Pa; (contract assay)
Protocol: (§1) The BTK, PI3K, and/or bromodomain inhibitory activity of a compound of the invention can be determined by methods known to the skilled artisan, or by procuring relevant analysis by a commercial vendor offering such services. […] In vivo, PI3K inhibition can be determined from target tissue biopsies by standard tissue processing in which cells are disrupted and Western Blot analysis is performed to determine the presence or absence of pAKT (substrate of PI3K) relative to a control sample. PI3K inhibition assays and BTK inhibition assays are known in the art and can be procured commercially through vendors such as Reaction Biology (Malvern, Pa.). The activity of a compound of the invention as an inhibitor of a bromodomain-containing protein, such as a BET protein, including BRD2, BRD3, BRD4, and/or BRDT, or an isoform or mutant thereof, may be determined in vitro, in vivo, or in a cell line. In vitro assays include assays that determine inhibition of bromodomain-containing proteins. Alternatively, inhibitor binding may be determined by running a competition experiment where a provided compound is incubated with a bromodomain-containing protein, such as a BET protein bound to known ligands, labeled or unlabeled. In vitro bromodomain inhibition assays can be performed using Alpha Screen Technology (Perkin Elmer Life and Analytical Sciences, Shelton, Conn.). In vivo bromodomain inhibition can be determined indirectly by evaluating the amount of a protein whose gene transcription is influenced or controlled by the bromodomain protein, for example, MYCN protein transcription is controlled by BRD4 (J. E. Delmore et al., Cell 2011, 146, 904-917; A. Puissant, Cancer Discov. 2013, 3, 308-323).
(§2) Compounds of the invention were analyzed for their ability to inhibit target proteins in vitro. PI3K alpha, gamma, and delta inhibition activity was determined by Thermo Fisher Scientific-Biosciences Life Sciences Solutions, Madison, Wis. The bromodomain protein inhibition (binding domain 1 and 2 of BRD4) was determined at Reaction Biology Corp., Malvern, Pa. BTK inhibition was performed by Reaction Biology Corp., Malvern, Pa.
(§3) Additional information regarding the testing procedures is available at each company's website on the internet. The IC50 data was calculated from a 10-point curve by the vendor and is compiled in ranges in the Table 6 below.

PI3K α = biological target: T2, PI3K α (Homo sapiens, UniProt P42336); experiment: PI3K alpha inhibition (Thermo Fisher Scientific); format: biochemical; details: 10-point curve; read-out: Target IC50 PI3K α
T2 construct: purchased Thermo Fisher Scientific-Biosciences Life Sciences Solutions, Madison, Wis; (contract assay)
Protocol: as §1, §2, §3

PI3K δ = biological target: T3, PI3K δ (Homo sapiens, UniProt O00329); experiment: PI3K delta inhibition (Thermo Fisher Scientific); format: biochemical; details: 10-point curve; read-out: Target IC50 PI3K δ
T3 construct: purchased Thermo Fisher Scientific-Biosciences Life Sciences Solutions, Madison, Wis; (contract assay)
Protocol: as §1, §2, §3

BTK (WT) = biological target: T4, BTK (WT) (Homo sapiens, UniProt Q06187); experiment: native BTK inhibition (Reaction Biology Corp.); format: biochemical; details: 10-point curve; read-out: Target IC50 BTK (WT)
T4 construct: purchased Reaction Biology Corp., Malvern, Pa; (contract assay)
Protocol: as §2, §3

BTK (C481S) = biological target: T5, BTK (C481S) (Homo sapiens, UniProt Q06187, C481S); experiment: BTK cysteine mutant C481S inhibition (Reaction Biology Corp.); format: biochemical; details: for Ratio C481S/WT: ratio of the BTK IC50 values, C481S over wild-type
T5 construct: purchased Reaction Biology Corp., Malvern, Pa; (contract assay)
Protocol: as §2, §3

JeKo-1 cells [2] = experiment: Cell viability (Celltiter-Glo), JeKo-1; format: cell-based; details: Homo sapiens, 48 hours
Protocol: (§4) The results of this experiment are shown in FIGS. 1A-1C, and in Table 7 below. Human mantle cell lymphoma cell lines were grown in 96 well plates with 5000 cells per well in RPMI 1640 media supplemented with 10% fetal bovine serum. Cells were treated for 48 hours with a concentration range of each compound from 50 nM to 50 uM. Cell viability a measure of viable cell numbers was determined using a Celltiter-Glo^R reagent for each concentration in order to construct an IC50 curve for each compound in each cell line.

Mino cells [3] = experiment: Cell viability (Celltiter-Glo), Mino; format: cell-based; details: Homo sapiens, 48 hours
Protocol: as §4

Granta519 cells = experiment: Cell viability (Celltiter-Glo), Granta519; format: cell-based; details: Homo sapiens, Granta-519, 48 hours
Protocol: as §4

[4] = test system: Human mantle cell lymphoma cell lines; experiment: Cell viability, mantle cell lymphoma cell lines (overall conclusion); format: cell-based; details: in vitro, 48 hours
Protocol: as §4

[5] = test system: pBTK(Y223) in JeKo and Mino cells; experiment: Western blot, phosphorylation of BTK at Tyr223 in anti-IgM stimulated cells; format: cell-based, human; details: for Suppression of pBTK(Y223): JeKo cells stimulated with F(ab′) and anti-human IgM, various concentrations, FIG. 3B; for Suppression of pBTK (Tyr223): anti-IgM stimulated JeKo and Mino cells, FIGS. 2A-2D
[6] = test system: pAKT(S473) in JeKo and Mino cells; experiment: Western blot, phosphorylation of AKT at Ser 473 in anti-IgM stimulated cells; format: cell-based, human; details: for Suppression of pAKT: JeKo cells stimulated with F(ab′) and anti-human IgM, various concentrations, FIG. 3B; for Suppression of pAKT (Ser 473): anti-IgM stimulated JeKo and Mino cells, FIGS. 2A-2D
Protocol: Phosphorylation of BTK at Tyr223 and AKT at Ser 473 were determined by Western blot analysis. The results are shown in FIGS. 2A-2B (JeKo cells) and FIGS. 2C-2D (Mino cells). Blots were reprobed for total BTK, AKT, and β-actin.

pBTK in JeKo cells = experiment: Washout Western blot for pBTK in IgM-stimulated JeKo cells; format: cell-based, human; details: 5 μM or 1 μM for 3 hours, washed with PBS three times, 4 hours recovery
pAKT in JeKo cells = experiment: Washout Western blot for pAKT in IgM-stimulated JeKo cells; format: cell-based, human; details: 5 μM or 1 μM for 3 hours, washed with PBS three times, 4 hours recovery
[7] = biological target: T6, BRD4-2 (binding domain 2 of BRD4) (Homo sapiens, UniProt O60885); experiment: BRD4 binding domain 2 inhibition (Reaction Biology Corp.); details: 10-point curve; read-out: Target IC50 BRD4-2
T6 construct: purchased Reaction Biology Corp., Malvern, Pa; (contract assay)
Protocol: as §1, §2, §3

PI3K γ = biological target: T7, PI3K γ (Homo sapiens, UniProt P48736); experiment: PI3K gamma inhibition (Thermo Fisher Scientific); format: biochemical; details: 10-point curve; read-out: Target IC50 PI3K γ
T7 construct: purchased Thermo Fisher Scientific-Biosciences Life Sciences Solutions, Madison, Wis; (contract assay)
Protocol: as §1, §2, §3

JeKo-1 cells [8] = experiment: Percentage cells in apoptosis, JeKo-1; format: cell-based, human
Source text: (§5) Additionally apoptosis data was obtained in both JeKo and Mino cells for compound 7.

Mino cells [9] = experiment: Percentage cells in apoptosis, Mino; format: cell-based, human; details: 24-hour
Source text: as §5

JeKo and Mino cells = experiment: Apoptosis, both mantle cell lymphoma lines (overall statement); format: cell-based, human
Source text: as §5

[10] = test system: pBTK(Y223) in JeKo-BTK-WT and JeKo-BTK-C481S cells; experiment: Western blot for pBTK(Y223) in JeKo-BTK wild-type and JeKo-BTK-C481S cells; format: cell-based, human; details: 1 hour, different concentrations, FIGS. 6A and 6B
[11] = test system: pAKT(S473) in JeKo-BTK-WT and JeKo-BTK-C481S cells; experiment: Western blot for pAKT in JeKo-BTK wild-type and JeKo-BTK-C481S cells; format: cell-based, human; details: 1 hour, different concentrations, FIGS. 6A and 6B
[12] = test system: pBTK in JeKo-BTK-C481S cells; experiment: Washout immunoblot for pBTK in JeKo-BTK-C481S cells; format: cell-based, human; details: 3 hours, washed with PBS, 4 hours recovery, FIG. 6C
[13] = biological target: T8, fluorophore-tagged BRD4 fusion protein (Homo sapiens, UniProt O60885); experiment: Chromatin-release assay in JeKo cells; format: cell-based; details: 1 μM, confocal microscopy
T8 construct: expressed in transfected cells; host or cells: JeKo cells
Protocol: A chromatin-release assay was performed on JeKo cells treated with 1 μM Compound 7.

JeKo cells = experiment: Cell cycle analysis in JeKo cells; format: cell-based, human; details: MCL cells, 5 μM, FIG. 4
PI3 kinases = details: cited from earlier work
breast cancer stem cells = details: women with breast tumors with high levels of HER2 protein; decreased from 11%; cited from earlier work

T5 sequence (Q06187 whole entry C481S): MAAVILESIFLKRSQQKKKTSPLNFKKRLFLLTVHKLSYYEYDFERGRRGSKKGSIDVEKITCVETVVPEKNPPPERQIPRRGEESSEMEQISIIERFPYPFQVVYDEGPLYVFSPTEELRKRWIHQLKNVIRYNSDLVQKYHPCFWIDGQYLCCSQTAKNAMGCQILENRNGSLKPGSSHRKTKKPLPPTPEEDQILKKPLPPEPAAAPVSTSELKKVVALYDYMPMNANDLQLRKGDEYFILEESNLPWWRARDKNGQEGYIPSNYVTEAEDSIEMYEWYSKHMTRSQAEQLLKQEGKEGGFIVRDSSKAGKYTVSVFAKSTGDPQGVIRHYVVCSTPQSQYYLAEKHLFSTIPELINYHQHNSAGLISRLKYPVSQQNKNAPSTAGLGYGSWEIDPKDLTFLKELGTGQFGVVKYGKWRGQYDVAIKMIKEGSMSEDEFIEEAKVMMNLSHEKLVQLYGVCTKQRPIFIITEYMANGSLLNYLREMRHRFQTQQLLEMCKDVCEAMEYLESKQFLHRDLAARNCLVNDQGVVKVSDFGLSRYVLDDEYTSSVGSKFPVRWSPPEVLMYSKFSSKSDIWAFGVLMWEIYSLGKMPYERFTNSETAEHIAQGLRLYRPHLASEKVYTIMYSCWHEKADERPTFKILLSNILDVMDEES
T3 sequence (O00329 whole entry): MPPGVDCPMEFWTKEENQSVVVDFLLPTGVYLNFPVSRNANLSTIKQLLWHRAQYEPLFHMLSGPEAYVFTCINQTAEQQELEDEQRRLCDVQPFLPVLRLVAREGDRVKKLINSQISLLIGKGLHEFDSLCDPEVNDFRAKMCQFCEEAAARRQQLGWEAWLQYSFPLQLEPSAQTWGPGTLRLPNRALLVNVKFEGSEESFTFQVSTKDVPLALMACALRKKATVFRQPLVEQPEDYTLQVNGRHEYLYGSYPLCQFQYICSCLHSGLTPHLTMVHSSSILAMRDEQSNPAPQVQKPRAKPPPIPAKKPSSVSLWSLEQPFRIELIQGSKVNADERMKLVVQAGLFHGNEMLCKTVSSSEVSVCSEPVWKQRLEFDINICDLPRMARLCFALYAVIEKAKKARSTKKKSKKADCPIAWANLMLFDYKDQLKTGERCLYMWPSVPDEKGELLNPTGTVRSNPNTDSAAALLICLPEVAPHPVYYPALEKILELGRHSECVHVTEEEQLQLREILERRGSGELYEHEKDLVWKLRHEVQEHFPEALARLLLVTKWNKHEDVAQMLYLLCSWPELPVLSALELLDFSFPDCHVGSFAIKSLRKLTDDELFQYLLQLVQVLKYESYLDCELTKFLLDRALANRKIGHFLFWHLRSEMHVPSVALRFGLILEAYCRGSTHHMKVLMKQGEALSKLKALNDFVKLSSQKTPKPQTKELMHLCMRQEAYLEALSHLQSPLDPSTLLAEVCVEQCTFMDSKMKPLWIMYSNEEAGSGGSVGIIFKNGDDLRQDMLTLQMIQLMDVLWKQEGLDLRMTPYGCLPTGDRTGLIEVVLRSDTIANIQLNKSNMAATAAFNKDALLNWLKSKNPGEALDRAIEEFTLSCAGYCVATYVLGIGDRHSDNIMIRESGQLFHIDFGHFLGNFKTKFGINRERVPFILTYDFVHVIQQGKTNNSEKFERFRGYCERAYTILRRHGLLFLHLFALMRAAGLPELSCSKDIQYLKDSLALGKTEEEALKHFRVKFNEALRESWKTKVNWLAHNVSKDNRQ
T3 sequence (P27986 whole entry partner): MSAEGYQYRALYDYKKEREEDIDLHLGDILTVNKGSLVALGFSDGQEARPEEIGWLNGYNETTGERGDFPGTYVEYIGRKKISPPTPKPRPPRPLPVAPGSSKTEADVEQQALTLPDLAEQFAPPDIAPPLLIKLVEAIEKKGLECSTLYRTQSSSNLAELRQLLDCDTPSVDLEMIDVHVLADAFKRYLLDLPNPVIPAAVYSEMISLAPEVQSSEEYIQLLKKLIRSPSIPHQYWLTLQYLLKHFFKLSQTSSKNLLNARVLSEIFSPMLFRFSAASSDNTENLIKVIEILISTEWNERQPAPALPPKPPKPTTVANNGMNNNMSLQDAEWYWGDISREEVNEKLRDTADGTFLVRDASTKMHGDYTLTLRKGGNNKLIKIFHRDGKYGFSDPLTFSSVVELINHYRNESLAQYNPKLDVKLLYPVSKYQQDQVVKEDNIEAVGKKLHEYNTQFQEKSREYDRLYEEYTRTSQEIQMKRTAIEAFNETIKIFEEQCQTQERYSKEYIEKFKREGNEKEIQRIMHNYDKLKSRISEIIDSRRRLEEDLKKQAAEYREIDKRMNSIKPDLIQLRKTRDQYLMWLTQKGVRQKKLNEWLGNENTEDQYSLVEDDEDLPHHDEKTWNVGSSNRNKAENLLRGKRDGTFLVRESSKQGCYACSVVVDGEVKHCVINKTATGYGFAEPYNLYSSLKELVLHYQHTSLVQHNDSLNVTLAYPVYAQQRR
T4 sequence (Q06187 whole entry): as the sequence (Q06187 whole entry C481S) above, with S481C counted along it
T2 sequence (P42336 whole entry): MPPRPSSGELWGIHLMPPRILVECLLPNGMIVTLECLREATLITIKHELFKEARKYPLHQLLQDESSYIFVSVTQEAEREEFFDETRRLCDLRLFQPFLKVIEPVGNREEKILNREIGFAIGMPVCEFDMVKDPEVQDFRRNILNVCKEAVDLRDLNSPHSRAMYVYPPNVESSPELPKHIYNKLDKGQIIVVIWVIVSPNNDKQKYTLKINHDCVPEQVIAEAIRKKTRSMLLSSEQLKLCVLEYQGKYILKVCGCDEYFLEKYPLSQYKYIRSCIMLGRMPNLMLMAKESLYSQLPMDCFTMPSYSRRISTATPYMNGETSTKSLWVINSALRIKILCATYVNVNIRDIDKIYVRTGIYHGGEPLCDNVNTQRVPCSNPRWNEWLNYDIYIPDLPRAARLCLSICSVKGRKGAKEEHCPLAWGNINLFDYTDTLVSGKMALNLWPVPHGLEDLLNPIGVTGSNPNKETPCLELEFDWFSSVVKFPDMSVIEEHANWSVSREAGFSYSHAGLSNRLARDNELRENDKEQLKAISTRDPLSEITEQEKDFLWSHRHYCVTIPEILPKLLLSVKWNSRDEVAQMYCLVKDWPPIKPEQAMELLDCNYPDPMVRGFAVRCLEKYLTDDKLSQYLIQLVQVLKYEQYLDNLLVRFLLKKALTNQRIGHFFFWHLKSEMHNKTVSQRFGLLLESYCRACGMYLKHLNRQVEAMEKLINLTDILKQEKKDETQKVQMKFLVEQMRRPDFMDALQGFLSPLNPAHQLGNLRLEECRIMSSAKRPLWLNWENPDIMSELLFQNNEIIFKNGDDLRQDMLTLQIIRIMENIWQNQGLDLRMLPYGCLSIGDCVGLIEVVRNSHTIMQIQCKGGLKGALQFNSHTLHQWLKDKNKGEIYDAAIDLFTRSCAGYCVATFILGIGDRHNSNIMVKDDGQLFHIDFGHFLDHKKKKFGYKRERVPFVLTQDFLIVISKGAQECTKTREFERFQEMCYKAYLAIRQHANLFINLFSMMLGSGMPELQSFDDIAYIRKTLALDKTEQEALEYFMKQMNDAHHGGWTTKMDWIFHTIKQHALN
T2 sequence (P27986 whole entry partner): as the sequence (P27986 whole entry partner) above
T7 sequence (P48736 whole entry): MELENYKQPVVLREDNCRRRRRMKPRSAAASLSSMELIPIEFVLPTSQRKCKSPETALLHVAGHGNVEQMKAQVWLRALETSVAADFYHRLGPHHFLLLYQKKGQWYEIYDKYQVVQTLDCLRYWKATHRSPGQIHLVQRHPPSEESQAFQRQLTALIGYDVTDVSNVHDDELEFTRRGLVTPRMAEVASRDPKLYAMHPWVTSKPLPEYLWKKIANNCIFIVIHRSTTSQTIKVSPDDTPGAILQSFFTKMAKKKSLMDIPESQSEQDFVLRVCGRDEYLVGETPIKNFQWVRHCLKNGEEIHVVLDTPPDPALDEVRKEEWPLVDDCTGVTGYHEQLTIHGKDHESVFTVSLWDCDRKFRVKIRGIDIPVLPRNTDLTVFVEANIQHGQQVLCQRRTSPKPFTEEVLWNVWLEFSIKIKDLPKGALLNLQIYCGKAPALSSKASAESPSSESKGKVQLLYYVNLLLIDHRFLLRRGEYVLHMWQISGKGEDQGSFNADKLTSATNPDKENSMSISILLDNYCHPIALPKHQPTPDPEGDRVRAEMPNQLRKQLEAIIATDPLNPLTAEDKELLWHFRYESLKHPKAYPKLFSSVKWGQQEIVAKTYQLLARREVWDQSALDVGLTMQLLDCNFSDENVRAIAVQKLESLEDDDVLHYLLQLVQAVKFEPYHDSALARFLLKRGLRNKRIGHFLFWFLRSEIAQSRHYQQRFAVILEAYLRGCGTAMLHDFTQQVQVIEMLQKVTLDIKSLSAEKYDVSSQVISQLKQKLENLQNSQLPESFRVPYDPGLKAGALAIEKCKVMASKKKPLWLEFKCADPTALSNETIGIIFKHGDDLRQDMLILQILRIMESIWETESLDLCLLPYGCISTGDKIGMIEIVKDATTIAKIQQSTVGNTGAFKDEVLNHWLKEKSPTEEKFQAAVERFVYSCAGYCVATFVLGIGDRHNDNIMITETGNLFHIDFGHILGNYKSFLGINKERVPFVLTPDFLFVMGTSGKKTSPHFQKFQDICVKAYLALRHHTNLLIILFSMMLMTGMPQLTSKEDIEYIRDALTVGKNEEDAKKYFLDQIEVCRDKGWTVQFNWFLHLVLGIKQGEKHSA

Structure (SMILES)	IC50 [1] [nM]	IC50 (PI3K α) [nM]	IC50 (PI3K δ) [nM]	IC50 (BTK (WT)) [nM]	Ratio C481S/WT (BTK (C481S))	IC50 (JeKo-1 cells [2]) [nM]	IC50 (Mino cells [3]) [nM]	IC50 (Granta519 cells) [nM]	Potency in reducing mantle cell lymphoma viability as compared to Ibrutinib [4]	Suppression of pBTK(Y223) [5]	Suppression of pBTK (Tyr223) [5]	Suppression of pAKT [6]	Suppression of pAKT (Ser 473) [6]	other results
C=CC(=O)Nc1cccc(-c2csc3c(=O)cc(N4CCOCC4)oc23)c1 [Compound 1, 1-[m-(5-Morpholino-7-oxo-4-oxa-1-thia-3-indenyl)phenylamino]-2-propen-1-one]	< 1000	< 1000	< 1000	< 1000	>81	1000 to 10000	< 1000	1000 to 10000	markedly more potent	suppressed	block the catalytic activity	suppressed	block the catalytic activity	pBTK inhibition after washing (pBTK in JeKo cells): not diminished by washing; pAKT after washing (pAKT in JeKo cells): restored after washing
C=CC(=O)N1CCOc2ccc(-c3csc4c(=O)cc(N5CCOCC5)oc34)cc21 [Compound 7, 1-[7-(5-Morpholino-7-oxo-4-oxa-1-thia-3-indenyl)-4-oxa-1-aza-2,3-dihydro-1H-naphth-1-yl]-2-propen-1-one]	< 1000	< 1000	< 1000	< 1000	728	< 1000	< 1000	1000 to 10000	markedly more potent		block the catalytic activity		block the catalytic activity	IC50 [7]: < 1000 nM; IC50 (PI3K γ): < 1000 nM; IC50 (BTK (C481S); 10-point curve, read-out: Target IC50 BTK (C481S)): 10000 to 30000 nM; Percentage cells in apoptosis (JeKo-1 cells [8]; JeKo-1, 24-hour, Early): + (less than 5%); Percentage cells in apoptosis (JeKo-1 cells [8]; JeKo-1, 24-hour, Late): +++ (between 10% and 30%); Percentage cells in apoptosis (JeKo-1 cells [8]; JeKo-1, 24-hour, Total): +++ (between 10% and 30%); Percentage cells in apoptosis (JeKo-1 cells [8]; JeKo-1, 48-hour, Early): +++ (between 10% and 30%); Percentage cells in apoptosis (JeKo-1 cells [8]; JeKo-1, 48-hour, Late): +++ (between 10% and 30%); Percentage cells in apoptosis (JeKo-1 cells [8]; JeKo-1, 48-hour, Total): ++++ (between 30% and 50%); Percentage cells in apoptosis (Mino cells [9]; Early): +++ (between 10% and 30%); Percentage cells in apoptosis (Mino cells [9]; Late): ++ (between 5% and 10%); Percentage cells in apoptosis (Mino cells [9]; Total): +++ (between 10% and 30%); Apoptosis compared with exposure to Ibrutinib (JeKo and Mino cells): much more apoptosis; Inhibition of pBTK [10]: inhibit pBTK; Inhibition of pAKT [11]: inhibits pAKT and in a dose dependent manner; pBTK suppression activity upon washout [12]: irreversible; Release of BRD4 from chromatin [13]: released a fluorophore-tagged BRD4 fusion protein from chromatin; Cell cycle effect (JeKo cells): Cell Cycle Arrest
C=CC(=O)Nc1ccc(-c2csc3c(=O)cc(N4CCOCC4)oc23)cc1 [Compound 13]						< 1000	< 1000	< 1000	markedly more potent	suppressed		suppressed		
O=c1cc(N2CCOCC2)oc2c(-c3ccccc3)cccc12 [LY294002, 2-(4-morpholinyl)-8-phenyl-4H-1-benzopyran-4-one]														IC50 (PI3 kinases): 1400 nM
CS(=O)(=O)CCNCc1ccc(-c2ccc3ncnc(Nc4ccc(OCc5cccc(F)c5)c(Cl)c4)c3c2)o1 [Lapatinib]														Breast cancer stem cells in biopsies (breast cancer stem cells): 5 % of cells
